{"source": "PubChem BioAssay AID1259407", "about": "(Chemical Carcinogenesis Research Information System (CCRIS), 2018)", "tested_on": "CCRIS mutagenicity, Ames/micronucleus/aberration tests", "test": "CCRIS mutagenicity studies", "note": "Active and inactive are the calls of the source. No rule for the calls is given here.", "data": [{"smiles": "Nc1ccc2cc3ccc(N)cc3nc2c1", "values": [{"measurement": "mutagenic call", "setting": "Test System: AMES SALMONELLA TYPHIMURIUM, Strain/Indicator: TA98, Metabolic Activation: HAMSTER, LIVER, S-9, AROCLOR 1254, Method: STANDARD PLATE", "result": "active; positive"}, {"measurement": "mutagenic call", "setting": "Test System: AMES SALMONELLA TYPHIMURIUM, Strain/Indicator: TA98, Metabolic Activation: HAMSTER, LIVER, S-9, Method: STANDARD PLATE", "result": "active; positive"}, {"measurement": "mutagenic call", "setting": "Test System: AMES SALMONELLA TYPHIMURIUM, Strain/Indicator: TA98, Metabolic Activation: MOUSE, LIVER, S-9, AROCLOR 1254, Method: STANDARD PLATE", "result": "active; positive"}, {"measurement": "mutagenic call", "setting": "Test System: AMES SALMONELLA TYPHIMURIUM, Strain/Indicator: TA98, Metabolic Activation: MOUSE, LIVER, S-9, Method: STANDARD PLATE", "result": "active; positive"}, {"measurement": "mutagenic call", "setting": "Test System: AMES SALMONELLA TYPHIMURIUM, Strain/Indicator: TA98, Metabolic Activation: NONE, Method: FLUCTUATION (MICROTITER)", "result": "active; positive"}, {"measurement": "mutagenic call", "setting": "Test System: AMES SALMONELLA TYPHIMURIUM, Strain/Indicator: TA98, Metabolic Activation: RAT, LIVER, S-9, AROCLOR 1254, Method: STANDARD PLATE", "result": "active; positive"}, {"measurement": "mutagenic call", "setting": "Test System: AMES SALMONELLA TYPHIMURIUM, Strain/Indicator: TA98, Metabolic Activation: RAT, LIVER, S-9, Method: STANDARD PLATE", "result": "active; positive"}, {"measurement": "mutagenic call", "setting": "Test System: AMES SALMONELLA TYPHIMURIUM, Strain/Indicator: TA100, Metabolic Activation: NONE, Method: STANDARD PLATE", "result": "inactive; negative"}, {"measurement": "mutagenic call", "setting": "Test System: AMES SALMONELLA TYPHIMURIUM, Strain/Indicator: TA100, Metabolic Activation: RAT, LIVER, S-9, AROCLOR 1254, Method: STANDARD PLATE", "result": "active; positive"}, {"measurement": "mutagenic call", "setting": "Test System: AMES SALMONELLA TYPHIMURIUM, Strain/Indicator: TA100, Metabolic Activation: RAT, LIVER, S-9, Method: STANDARD PLATE", "result": "inactive; negative"}, {"measurement": "mutagenic call", "setting": "Test System: AMES SALMONELLA TYPHIMURIUM, Strain/Indicator: TA1535, Metabolic Activation: MOUSE, LIVER, S-9, AROCLOR 1254, Method: STANDARD PLATE", "result": "inactive; negative"}, {"measurement": "mutagenic call", "setting": "Test System: AMES SALMONELLA TYPHIMURIUM, Strain/Indicator: TA1535, Metabolic Activation: NONE, Method: PREINCUBATION", "result": "inactive; negative"}, {"measurement": "mutagenic call", "setting": "Test System: AMES SALMONELLA TYPHIMURIUM, Strain/Indicator: TA1535, Metabolic Activation: NONE, Method: STANDARD PLATE", "result": "inactive; negative"}, {"measurement": "mutagenic call", "setting": "Test System: AMES SALMONELLA TYPHIMURIUM, Strain/Indicator: TA1535, Metabolic Activation: RAT, LIVER, S-9, AROCLOR 1254, Method: STANDARD PLATE", "result": "inactive; negative"}, {"measurement": "mutagenic call", "setting": "Test System: AMES SALMONELLA TYPHIMURIUM, Strain/Indicator: TA1535, Metabolic Activation: RAT, LIVER, S-9, TETRACHLOROBIPHENYL, Method: PREINCUBATION", "result": "inactive; negative"}, {"measurement": "mutagenic call", "setting": "Test System: AMES SALMONELLA TYPHIMURIUM, Strain/Indicator: TA1535, Metabolic Activation: RAT, LIVER, S-9, Method: STANDARD PLATE", "result": "inactive; negative"}, {"measurement": "mutagenic call", "setting": "Test System: AMES SALMONELLA TYPHIMURIUM, Strain/Indicator: TA1537, Metabolic Activation: HAMSTER, LIVER, S-9, AROCLOR 1254, Method: STANDARD PLATE", "result": "active; positive"}, {"measurement": "mutagenic call", "setting": "Test System: AMES SALMONELLA TYPHIMURIUM, Strain/Indicator: TA1537, Metabolic Activation: HAMSTER, LIVER, S-9, Method: STANDARD PLATE", "result": "active; positive"}, {"measurement": "mutagenic call", "setting": "Test System: AMES SALMONELLA TYPHIMURIUM, Strain/Indicator: TA1537, Metabolic Activation: MOUSE, LIVER, S-9, AROCLOR 1254, Method: STANDARD PLATE", "result": "active; positive"}, {"measurement": "mutagenic call", "setting": "Test System: AMES SALMONELLA TYPHIMURIUM, Strain/Indicator: TA1537, Metabolic Activation: MOUSE, LIVER, S-9, Method: STANDARD PLATE", "result": "active; positive"}, {"measurement": "mutagenic call", "setting": "Test System: AMES SALMONELLA TYPHIMURIUM, Strain/Indicator: TA1537, Metabolic Activation: NONE, Method: FLUCTUATION (MICROTITER)", "result": "active; positive"}, {"measurement": "mutagenic call", "setting": "Test System: AMES SALMONELLA TYPHIMURIUM, Strain/Indicator: TA1537, Metabolic Activation: NONE, Method: PREINCUBATION", "result": "active; positive"}, {"measurement": "mutagenic call", "setting": "Test System: AMES SALMONELLA TYPHIMURIUM, Strain/Indicator: TA1537, Metabolic Activation: RAT, LIVER, S-9, AROCLOR 1254, Method: STANDARD PLATE", "result": "active; positive"}, {"measurement": "mutagenic call", "setting": "Test System: AMES SALMONELLA TYPHIMURIUM, Strain/Indicator: TA1537, Metabolic Activation: RAT, LIVER, S-9, TETRACHLOROBIPHENYL, Method: PREINCUBATION", "result": "active; positive"}, {"measurement": "mutagenic call", "setting": "Test System: AMES SALMONELLA TYPHIMURIUM, Strain/Indicator: TA1537, Metabolic Activation: RAT, LIVER, S-9, Method: STANDARD PLATE", "result": "active; positive"}, {"measurement": "mutagenic call", "setting": "Test System: AMES SALMONELLA TYPHIMURIUM, Strain/Indicator: TA1538, Metabolic Activation: HAMSTER, LIVER, S-9, AROCLOR 1254, Method: STANDARD PLATE", "result": "active; positive"}, {"measurement": "mutagenic call", "setting": "Test System: AMES SALMONELLA TYPHIMURIUM, Strain/Indicator: TA1538, Metabolic Activation: HAMSTER, LIVER, S-9, Method: STANDARD PLATE", "result": "active; positive"}, {"measurement": "mutagenic call", "setting": "Test System: AMES SALMONELLA TYPHIMURIUM, Strain/Indicator: TA1538, Metabolic Activation: MOUSE, LIVER, S-9, AROCLOR 1254, Method: STANDARD PLATE", "result": "active; positive"}, {"measurement": "mutagenic call", "setting": "Test System: AMES SALMONELLA TYPHIMURIUM, Strain/Indicator: TA1538, Metabolic Activation: MOUSE, LIVER, S-9, Method: STANDARD PLATE", "result": "active; positive"}, {"measurement": "mutagenic call", "setting": "Test System: AMES SALMONELLA TYPHIMURIUM, Strain/Indicator: TA1538, Metabolic Activation: NONE, Method: PREINCUBATION", "result": "inactive; negative"}, {"measurement": "mutagenic call", "setting": "Test System: AMES SALMONELLA TYPHIMURIUM, Strain/Indicator: TA1538, Metabolic Activation: RAT, LIVER, S-9, AROCLOR 1254, Method: STANDARD PLATE", "result": "active; positive"}, {"measurement": "mutagenic call", "setting": "Test System: AMES SALMONELLA TYPHIMURIUM, Strain/Indicator: TA1538, Metabolic Activation: RAT, LIVER, S-9, TETRACHLOROBIPHENYL, Method: PREINCUBATION", "result": "active; positive"}, {"measurement": "mutagenic call", "setting": "Test System: AMES SALMONELLA TYPHIMURIUM, Strain/Indicator: TA1538, Metabolic Activation: RAT, LIVER, S-9, Method: STANDARD PLATE", "result": "active; positive"}, {"measurement": "mutagenic call", "setting": "Test System: AMES SALMONELLA TYPHIMURIUM, Strain/Indicator: TA1977, Metabolic Activation: NONE, Method: PREINCUBATION", "result": "active; positive"}, {"measurement": "mutagenic call", "setting": "Test System: AMES SALMONELLA TYPHIMURIUM, Strain/Indicator: TA1977, Metabolic Activation: RAT, LIVER, S-9, TETRACHLOROBIPHENYL, Method: PREINCUBATION", "result": "active; positive"}, {"measurement": "mutagenic call", "setting": "Test System: AMES SALMONELLA TYPHIMURIUM, Strain/Indicator: TA1978, Metabolic Activation: RAT, LIVER, S-9, TETRACHLOROBIPHENYL, Method: PREINCUBATION", "result": "active; positive"}, {"measurement": "mutagenic call", "setting": "Test System: AMES SALMONELLA TYPHIMURIUM, Strain/Indicator: TA7001, Metabolic Activation: NONE, Method: FLUCTUATION (MICROTITER)", "result": "inactive; negative"}, {"measurement": "mutagenic call", "setting": "Test System: AMES SALMONELLA TYPHIMURIUM, Strain/Indicator: TA7002, Metabolic Activation: NONE, Method: FLUCTUATION (MICROTITER)", "result": "inactive; negative"}, {"measurement": "mutagenic call", "setting": "Test System: AMES SALMONELLA TYPHIMURIUM, Strain/Indicator: TA7003, Metabolic Activation: NONE, Method: FLUCTUATION (MICROTITER)", "result": "inactive; negative"}, {"measurement": "mutagenic call", "setting": "Test System: AMES SALMONELLA TYPHIMURIUM, Strain/Indicator: TA7004, Metabolic Activation: NONE, Method: FLUCTUATION (MICROTITER)", "result": "inactive; negative"}, {"measurement": "mutagenic call", "setting": "Test System: AMES SALMONELLA TYPHIMURIUM, Strain/Indicator: TA7005, Metabolic Activation: NONE, Method: FLUCTUATION (MICROTITER)", "result": "active; positive"}, {"measurement": "mutagenic call", "setting": "Test System: AMES SALMONELLA TYPHIMURIUM, Strain/Indicator: TA7006, Metabolic Activation: NONE, Method: FLUCTUATION (MICROTITER)", "result": "inactive; negative"}, {"measurement": "mutagenic call", "setting": "Test System: CHINESE HAMSTER OVARY, Strain/Indicator: CHO-K1-BH4 (HGPRT)/6-THIOGUANINE, Metabolic Activation: NONE, Method: SUSPENSION/PLATE", "result": "active; positive"}, {"measurement": "mutagenic call", "setting": "Test System: CHINESE HAMSTER V-79, Strain/Indicator: V-79/6-THIOGUANINE, Metabolic Activation: NONE, Method: FLASK ASSAY", "result": "active; positive"}, {"measurement": "mutagenic call", "setting": "Test System: E. COLI, Strain/Indicator: WP2 UVRA, Metabolic Activation: HAMSTER, LIVER, S-9, AROCLOR 1254, Method: STANDARD PLATE", "result": "inactive; negative"}, {"measurement": "mutagenic call", "setting": "Test System: E. COLI, Strain/Indicator: WP2 UVRA, Metabolic Activation: HAMSTER, LIVER, S-9, Method: STANDARD PLATE", "result": "inactive; negative"}, {"measurement": "mutagenic call", "setting": "Test System: E. COLI, Strain/Indicator: WP2 UVRA, Metabolic Activation: MOUSE, LIVER, S-9, Method: STANDARD PLATE", "result": "inactive; negative"}, {"measurement": "mutagenic call", "setting": "Test System: E. COLI, Strain/Indicator: WP2 UVRA, Metabolic Activation: NONE, Method: STANDARD PLATE", "result": "inactive; negative"}, {"measurement": "mutagenic call", "setting": "Test System: MOUSE LYMPHOMA, Strain/Indicator: L5178Y (TK+/TK-), Metabolic Activation: NONE, Method: SUSPENSION/PLATE", "result": "active; positive"}]}, {"smiles": "Cn1c(C(F)(F)F)cc2c(N3CCCC3)nc(N3CCCC3)nc21", "values": [{"measurement": "mutagenic call", "setting": "Test System: UDS RAT HEPATOCYTES, Strain/Indicator: THY-INCORP, Metabolic Activation: NONE, Method: AUTORADIOGRAPHY", "result": "inactive; negative"}]}]}
